The nature of data set [1]: Solubility in water of the hydrochloride salt. The conditions noted are these: amorphous hydrochloride salt. It counts as physicochemical. The procedure: Preparation of the hydrochloride salt of N-(2-diethylamino-ethyl)nicotinamide. The free base [compound (3)] was dissolved in n-propanol+n-butanol+0.1 M HClaq (2:1:1, v/v/v). An aliquate of 2 M aqueous […] was added to adjust the pH to 2. The solution was concentrated and the resulting amorphous material was dried under vacuum overnight.

The test system of data set [2] is human lymphocytes (purified mononuclear leukocytes). It counts as cell-based. The conditions noted are these: for radiosensitization of cytotoxicity by apoptosis: 1 Gy radiation plus drug (100 μM MCA or 1000 μM others), FIG. 6B; for induction of / effect on apoptotic cytotoxicity: drug alone (FIG. 6A) or with 1 Gy radiation (FIG. 6B). The procedure: Evaluation of radiosensitization by apoptotic cytotoxicity. […] The cells were first exposed to the drugs for 30 minutes at 37° C. before being given 1 Gy irradiation (^137cesium source, Scanditronix, 1.56 Gy/min). The apoptotic and necrotic cells were analyzed and scored by phase contrast morphological criteria. Apoptotic cells have condensed chromatin and are trypan blue negative whereas necrotic cells stain blue with trypan blue.

SMILES strings stand for the structures. “Also recorded” adds a separate entry of the source.

On to `CCN(CC)CCNC(=O)c1cccnc1.Cl` [N-(2-diethylaminoethyl) nicotinamide HCl], for which the solubility in water result in data set [1] was “readily soluble in water”.

Turning to `CCN(CC)CCNC(=O)c1cc(Cl)c(N)cc1OC` [metoclopramide, 4-amino-5-chloro-N-(2-diethylamino-ethyl)-2-methoxybenzamide], in data set [2], the “radiosensitization of cytotoxicity by apoptosis” value is “having the properties to sensitize apoptotic cell killing by radiation; also recorded: effective” and the “induction of / effect on apoptotic cytotoxicity” value is given as “capable of inducing apoptotic cytotoxicity”.

Regarding `NC(=O)c1cccnc1` [nicotinamide], in data set [2], the “radiosensitization of cytotoxicity by apoptosis” value was “not and does not sensitize cytotoxicity by apoptosis”; the “induction of / effect on apoptotic cytotoxicity” value is reported as “not able to affect cytotoxicity by apoptosis”.

The values above are taken from patent US6713517B1, “Use of aryl N-substituted carboxamides directly and as radio-and chemosensitizers for killing tumor and cancer cells and novel compounds for such use” (OXiGENE, Inc., priority 1996, dated 2004).
